Measurements taken from ChEMBL document CHEMBL5338713, “Discovery of pomalidomide-based PROTACs for selective degradation of histone deacetylase 8” (Eur J Med Chem, 2022).
The source made the active and inactive calls. No cut-off for these calls is given here.

What follows are compounds tested against T1, Histone deacetylase 8 (Homo sapiens) (UniProt Q9BY41) (assay: Induction of HDAC8 degradation in human HCT-116 cells at 5 uM by Western blot analysis relative to control). Details: not given.
T1 sequence (whole entry): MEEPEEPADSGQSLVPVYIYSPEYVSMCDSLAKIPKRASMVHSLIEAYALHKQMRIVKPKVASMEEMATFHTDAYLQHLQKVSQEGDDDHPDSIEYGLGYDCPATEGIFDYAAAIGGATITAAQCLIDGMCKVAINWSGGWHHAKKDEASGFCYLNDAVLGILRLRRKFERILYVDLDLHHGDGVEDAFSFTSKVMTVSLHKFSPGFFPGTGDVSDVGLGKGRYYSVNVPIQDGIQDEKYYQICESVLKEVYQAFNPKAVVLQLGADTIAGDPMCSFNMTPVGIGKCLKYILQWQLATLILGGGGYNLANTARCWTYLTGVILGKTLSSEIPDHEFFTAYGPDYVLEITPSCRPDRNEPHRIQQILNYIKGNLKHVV
Type: cell-based

Activity [%]	Compound
-22	O=C(NO)c1cccc(C(=O)NCCc2ccccc2)c1
6.54	O=C1CCC(N2C(=O)c3cccc(N4CCN(CC5CN(C(=O)CCCCOc6ccc(CCNC(=O)c7cccc(C(=O)NO)c7)cc6)C5)CC4)c3C2=O)C(=O)N1 (configuration not stated)
25.8	O=C(COc1ccc(CCNC(=O)c2cccc(C(=O)NO)c2)cc1)NCCNc1cccc2c1C(=O)N(C1CCC(=O)NC1=O)C2=O (configuration not stated)
21.2	O=C(CCCOc1ccc(CCNC(=O)c2cccc(C(=O)NO)c2)cc1)NCCCNc1cccc2c1C(=O)N(C1CCC(=O)NC1=O)C2=O (configuration not stated)
25.8	O=C(CCCCOc1ccc(CCNC(=O)c2cccc(C(=O)NO)c2)cc1)NCCCNc1cccc2c1C(=O)N(C1CCC(=O)NC1=O)C2=O (configuration not stated)
68.9	O=C(CCCCOc1ccc(CCNC(=O)c2cccc(C(=O)NO)c2)cc1)NCCCCCCNc1ccc2c(c1)C(=O)N(C1CCC(=O)NC1=O)C2=O (configuration not stated)
10.7	O=C(COc1ccc(CCNC(=O)c2cccc(C(=O)NO)c2)cc1)NCCCCCNc1cccc2c1C(=O)N(C1CCC(=O)NC1=O)C2=O (configuration not stated)
23.7	O=C(CCCCCCOc1ccc(CCNC(=O)c2cccc(C(=O)NO)c2)cc1)NCCCCCNc1cccc2c1C(=O)N(C1CCC(=O)NC1=O)C2=O (configuration not stated)
49.6	O=C(CCCOc1ccc(CCNC(=O)c2cccc(C(=O)NO)c2)cc1)NCCCCCCNc1cccc2c1C(=O)N(C1CCC(=O)NC1=O)C2=O (configuration not stated)
30.5	O=C(CCCCCCOc1ccc(CCNC(=O)c2cccc(C(=O)NO)c2)cc1)NCCCNc1cccc2c1C(=O)N(C1CCC(=O)NC1=O)C2=O (configuration not stated)
57.9	O=C1CCC(N2C(=O)c3cccc(N4CCN(C(=O)CCCCOc5ccc(CCNC(=O)c6cccc(C(=O)NO)c6)cc5)CC4)c3C2=O)C(=O)N1 (configuration not stated)
48.3	O=C1CCC(N2C(=O)c3cccc(N4CCC(CN5CCN(C(=O)CCCCOc6ccc(CCNC(=O)c7cccc(C(=O)NO)c7)cc6)CC5)CC4)c3C2=O)C(=O)N1 (configuration not stated)
44.3	O=C(CCCOc1ccc(CCNC(=O)c2cccc(C(=O)NO)c2)cc1)NCCNc1cccc2c1C(=O)N(C1CCC(=O)NC1=O)C2=O (configuration not stated)
74.4	O=C1CCC(N2C(=O)c3cccc(N4CCC(N5CCN(C(=O)CCCCOc6ccc(CCNC(=O)c7cccc(C(=O)NO)c7)cc6)CC5)CC4)c3C2=O)C(=O)N1 (configuration not stated)
20.8	O=C(CCCOc1ccc(CCNC(=O)c2cccc(C(=O)NO)c2)cc1)NCCCCNc1cccc2c1C(=O)N(C1CCC(=O)NC1=O)C2=O (configuration not stated)
72.9	O=C(CCCCOc1ccc(CCNC(=O)c2cccc(C(=O)NO)c2)cc1)NCCCCCNc1cccc2c1C(=O)N(C1CCC(=O)NC1=O)C2=O (configuration not stated)
-11	Nc1cccc2c1C(=O)N(C1CCC(=O)NC1=O)C2=O (configuration not stated)
54.5	O=C(COc1ccc(CCNC(=O)c2cccc(C(=O)NO)c2)cc1)NCCCCCCNc1cccc2c1C(=O)N(C1CCC(=O)NC1=O)C2=O (configuration not stated)

Activity [%]	Compound
72.9	O=C(CCCCCOc1ccc(CCNC(=O)c2cccc(C(=O)NO)c2)cc1)NCCNc1cccc2c1C(=O)N(C1CCC(=O)NC1=O)C2=O (configuration not stated)
43.2	O=C1CCC(N2C(=O)c3cccc(N4CCN(C5CCN(C(=O)CCCCOc6ccc(CCNC(=O)c7cccc(C(=O)NO)c7)cc6)CC5)CC4)c3C2=O)C(=O)N1 (configuration not stated)
25.6	O=C(CCCCCCOc1ccc(CCNC(=O)c2cccc(C(=O)NO)c2)cc1)NCCCCCCNc1cccc2c1C(=O)N(C1CCC(=O)NC1=O)C2=O (configuration not stated)
59.6	O=C1CCC(N2C(=O)c3cccc(N4CC(N5CCN(C(=O)CCCCOc6ccc(CCNC(=O)c7cccc(C(=O)NO)c7)cc6)CC5)C4)c3C2=O)C(=O)N1 (configuration not stated)
39.5	O=C1CCC(N2C(=O)c3cccc(N4CCN(C5CN(C(=O)CCCCOc6ccc(CCNC(=O)c7cccc(C(=O)NO)c7)cc6)C5)CC4)c3C2=O)C(=O)N1 (configuration not stated)
43.6	O=C1CCC(N2C(=O)c3cccc(N4CCN(CC5CCN(C(=O)CCCCOc6ccc(CCNC(=O)c7cccc(C(=O)NO)c7)cc6)CC5)CC4)c3C2=O)C(=O)N1 (configuration not stated)
33.4	O=C(CCCOc1ccc(CCNC(=O)c2cccc(C(=O)NO)c2)cc1)NCCCCCNc1cccc2c1C(=O)N(C1CCC(=O)NC1=O)C2=O (configuration not stated)
45.2	O=C(CCCCCOc1ccc(CCNC(=O)c2cccc(C(=O)NO)c2)cc1)NCCCCCCNc1cccc2c1C(=O)N(C1CCC(=O)NC1=O)C2=O (configuration not stated)
51.7	O=C(CCCCCOc1ccc(CCNC(=O)c2cccc(C(=O)NO)c2)cc1)NCCCCCNc1cccc2c1C(=O)N(C1CCC(=O)NC1=O)C2=O (configuration not stated)
19.8	O=C(CCCCCCOc1ccc(CCNC(=O)c2cccc(C(=O)NO)c2)cc1)NCCCCNc1cccc2c1C(=O)N(C1CCC(=O)NC1=O)C2=O (configuration not stated)
32	O=C(COc1ccc(CCNC(=O)c2cccc(C(=O)NO)c2)cc1)NCCCNc1cccc2c1C(=O)N(C1CCC(=O)NC1=O)C2=O (configuration not stated)
43.6	O=C(COc1ccc(CCNC(=O)c2cccc(C(=O)NO)c2)cc1)NCCCCNc1cccc2c1C(=O)N(C1CCC(=O)NC1=O)C2=O (configuration not stated)
16.9	O=C(CCCCCOc1ccc(CCNC(=O)c2cccc(C(=O)NO)c2)cc1)NCCCNc1cccc2c1C(=O)N(C1CCC(=O)NC1=O)C2=O (configuration not stated)
56.3	O=C1CCC(N2C(=O)c3cccc(N4CC(CN5CCN(C(=O)CCCCOc6ccc(CCNC(=O)c7cccc(C(=O)NO)c7)cc6)CC5)C4)c3C2=O)C(=O)N1 (configuration not stated)
24.4	O=C(CCCCCOc1ccc(CCNC(=O)c2cccc(C(=O)NO)c2)cc1)NCCCCNc1cccc2c1C(=O)N(C1CCC(=O)NC1=O)C2=O (configuration not stated)
53	O=C(CCCCOc1ccc(CCNC(=O)c2cccc(C(=O)NO)c2)cc1)NCCCCNc1cccc2c1C(=O)N(C1CCC(=O)NC1=O)C2=O (configuration not stated)
65.2	O=C(CCCCCCOc1ccc(CCNC(=O)c2cccc(C(=O)NO)c2)cc1)NCCNc1cccc2c1C(=O)N(C1CCC(=O)NC1=O)C2=O (configuration not stated)
52.5	O=C(CCCCOc1ccc(CCNC(=O)c2cccc(C(=O)NO)c2)cc1)NCCNc1cccc2c1C(=O)N(C1CCC(=O)NC1=O)C2=O (configuration not stated)

The compounds below were run against T1, Histone deacetylase 8 (Homo sapiens) (assay: Induction of HDAC8 degradation in human HCT-116 cells assessed as maximum degradation at 0.1 to 160 uM measured after 10 hrs by Western blot analysis relative to control). Details: dose 0.1-160 µM.
Type: cell-based

Emax [%]	Compound
77	O=C(CCCCOc1ccc(CCNC(=O)c2cccc(C(=O)NO)c2)cc1)NCCCCCCNc1ccc2c(c1)C(=O)N(C1CCC(=O)NC1=O)C2=O (configuration not stated)
91	O=C1CCC(N2C(=O)c3cccc(N4CCC(N5CCN(C(=O)CCCCOc6ccc(CCNC(=O)c7cccc(C(=O)NO)c7)cc6)CC5)CC4)c3C2=O)C(=O)N1 (configuration not stated)

The compounds below were run against Protein cereblon/Histone deacetylase 8 (Homo sapiens) (UniProt Q9BY41+Q96SW2) (assay: PROTAC activity at HDAC8/CRBN in human HCT-116 cells assessed as degradation of HDAC8 at 5 uM by Western blot analysis). Details: not given.
Sequence of Protein cereblon/Histone deacetylase 8 (Homo sapiens) (Q96SW2 whole entry, looked up, one chain of several): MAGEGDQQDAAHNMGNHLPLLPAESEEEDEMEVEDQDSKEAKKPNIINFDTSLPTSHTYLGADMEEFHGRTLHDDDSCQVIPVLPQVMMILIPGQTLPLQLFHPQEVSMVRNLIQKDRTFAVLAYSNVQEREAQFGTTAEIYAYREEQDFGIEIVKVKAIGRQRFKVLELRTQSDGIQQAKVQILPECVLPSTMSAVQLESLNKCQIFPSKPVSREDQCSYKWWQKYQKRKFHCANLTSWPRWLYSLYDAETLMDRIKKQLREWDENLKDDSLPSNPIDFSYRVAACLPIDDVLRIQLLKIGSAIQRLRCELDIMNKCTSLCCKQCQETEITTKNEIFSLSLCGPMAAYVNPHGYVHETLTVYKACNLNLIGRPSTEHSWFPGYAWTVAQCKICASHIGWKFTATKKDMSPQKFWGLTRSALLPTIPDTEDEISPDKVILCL
Type: cell-based

Activity	Compound
inactive	O=C(CCCCOc1ccc(CCNC(=O)c2cccc(C(=O)NOC3CCCCO3)c2)cc1)NCCCCCCNc1cccc2c1C(=O)N(C1CCC(=O)NC1=O)C2=O (configuration not stated)
inactive	CN1C(=O)CCC(N2C(=O)c3cccc(NCCCCCCNC(=O)CCCCOc4ccc(CCNC(=O)c5cccc(C(=O)NO)c5)cc4)c3C2=O)C1=O (configuration not stated)

These compounds were tested against T2, Histone deacetylase 8 (Homo sapiens, UniProt Q9BY41) (assay: Induction of HDAC8 degradation in human HCT-116 cells measured after 10 hrs by Western blot analysis). Details: not given.
T2 sequence (Q9BY41 whole entry): T1 sequence (whole entry)
Type: cell-based

DC50 [nM]	Compound
441	O=C(CCCCOc1ccc(CCNC(=O)c2cccc(C(=O)NO)c2)cc1)NCCCCCCNc1ccc2c(c1)C(=O)N(C1CCC(=O)NC1=O)C2=O (configuration not stated)
876	O=C1CCC(N2C(=O)c3cccc(N4CCC(N5CCN(C(=O)CCCCOc6ccc(CCNC(=O)c7cccc(C(=O)NO)c7)cc6)CC5)CC4)c3C2=O)C(=O)N1 (configuration not stated)
